Where “and” joins values, the source holds several entries; their conditions need not be identical. Equal values may be shown once.
Target: Gamma-aminobutyric acid receptor subunit alpha-5 (Rattus norvegicus, UniProt P19969)
Sequence (P19969 whole entry): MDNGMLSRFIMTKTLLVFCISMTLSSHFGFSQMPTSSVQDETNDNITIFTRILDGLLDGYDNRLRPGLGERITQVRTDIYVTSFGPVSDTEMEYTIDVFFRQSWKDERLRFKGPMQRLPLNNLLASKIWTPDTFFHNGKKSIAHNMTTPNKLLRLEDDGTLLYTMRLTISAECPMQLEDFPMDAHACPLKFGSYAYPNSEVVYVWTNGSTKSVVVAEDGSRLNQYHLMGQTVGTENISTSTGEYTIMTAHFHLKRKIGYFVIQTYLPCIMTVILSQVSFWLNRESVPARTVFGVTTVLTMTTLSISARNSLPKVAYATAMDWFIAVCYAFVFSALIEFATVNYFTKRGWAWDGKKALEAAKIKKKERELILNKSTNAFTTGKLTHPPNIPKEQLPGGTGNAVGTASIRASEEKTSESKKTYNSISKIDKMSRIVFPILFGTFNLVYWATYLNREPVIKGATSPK

| SMILES | Ki |
| --- | --- |
| CN1Cc2c(C(=O)OC(C)(C)C)ncn2-c2ccc(C#C[Si](C)(C)C)cc2C1=O | 1.03 nM and 0.83 nM |
| CN1C(=O)CN=C(c2ccccc2)c2cc(C#N)ccc21 | 34 nM |
